# Reference: patent US8933079B2, “Pyridone and pyridazinone derivatives as anti-obesity agents” (Boehringer Ingelheim International GmbH, priority 2012, dated 2015)
# Molecular target: hMCH-1R (Homo sapiens (Human), UniProt Q99705)
# Test: MCH-1 receptor binding test (125I-MCH binding to hMCH-1R transfected cell membranes)
# Conditions: competition with 100 pM 125I-MCH, membranes of CHO/Galpha16 cells stably transfected with hMCH-1R
# Method: Res Commun. […] After the incubation the reaction is filtered using a cell harvester through 0.5% PEI treated fibreglass filters (GF/B, Unifilter Packard). The membrane-bound radioactivity retained on the filter is then determined after the addition of scintillator substance (Packard Microscint 20) in a measuring device (TopCount of Packard). […] The analysis of the concentration binding curve is carried out on the assumption of one receptor binding site.
# Sequence of hMCH-1R (Q99705 whole entry): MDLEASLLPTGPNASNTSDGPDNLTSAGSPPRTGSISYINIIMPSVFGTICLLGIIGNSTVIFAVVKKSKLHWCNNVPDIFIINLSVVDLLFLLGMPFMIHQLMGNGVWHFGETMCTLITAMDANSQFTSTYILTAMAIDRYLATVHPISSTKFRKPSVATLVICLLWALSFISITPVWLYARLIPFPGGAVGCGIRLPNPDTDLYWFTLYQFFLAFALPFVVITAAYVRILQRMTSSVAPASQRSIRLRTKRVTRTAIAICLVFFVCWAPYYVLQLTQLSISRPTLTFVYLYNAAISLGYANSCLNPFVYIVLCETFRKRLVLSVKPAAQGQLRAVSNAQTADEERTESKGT
row,SMILES,IC50 [nM]
1,"Cc1cc(CN2CCC(O)CC2)ccc1C(=O)Cn1ncc(OCc2ccc(Cl)cn2)cc1=O [Example 7.14, 5-(5-Chloro-pyridin-2-ylmethoxy)-2-{2-[4-(4-hydroxy-piperidin-1-ylmethyl)-2-methyl-phenyl]-2-oxo-ethyl}-2H-pyridazin-3-one]",30
2,"Cc1cc(CN2CCCC2)ccc1C(=O)Cn1ncc(OCc2ccc(Cl)cn2)cc1=O [Example 7.15, 5-(5-Chloro-pyridin-2-ylmethoxy)-2-[2-(2-methyl-4-pyrrolidin-1-ylmethyl-phenyl)-2-oxo-ethyl]-2H-pyridazin-3-one]",19
3,"Cc1cc(CN(C)C)ccc1C(=O)Cn1ncc(OCc2ccc(Cl)cn2)cc1=O [Example 7.16, 5-(5-Chloro-pyridin-2-ylmethoxy)-2-[2-(4-dimethylaminomethyl-2-methyl-phenyl)-2-oxo-ethyl]-2H-pyridazin-3-one]",24
4,"Cc1cc(CN2CCNCC2)ccc1C(=O)Cn1ncc(OCc2ccc(Cl)cn2)cc1=O [Example 7.17, 5-(5-Chloro-pyridin-2-ylmethoxy)-2-[2-(2-methyl-4-piperazin-1-ylmethyl-phenyl)-2-oxo-ethyl]-2H-pyridazin-3-one]",83
5,"Cc1cc(CN2CC[C@@H](O)C2)ccc1C(=O)Cn1ncc(OCc2ccc(Br)cn2)cc1=O [Example 8.1, (R)-5-(5-Bromo-pyridin-2-ylmethoxy)-2-{2-[4-(3-hydroxy-pyrrolidin-1-ylmethyl)-2-methyl-phenyl]-2-oxo-ethyl}-2H-pyridazin-3-one]",22
6,"Cc1cc(CN2CC(O)C2)ccc1C(=O)Cn1ncc(OCc2ccc(Br)cn2)cc1=O [Example 8.2, 5-(5-Bromo-pyridin-2-ylmethoxy)-2-{2-[4-(3-hydroxy-azetidin-1-ylmethyl)-2-methyl-phenyl]-2-oxo-ethyl}-2H-pyridazin-3-one]",19
7,Cc1cc(CN2CCC[C@H](O)C2)ccc1C(=O)Cn1ncc(OCc2ccc(Br)cn2)cc1=O [Example 8.4],24
8,Cc1cc(CN2CCC(C)(O)C2)ccc1C(=O)Cn1ncc(OCc2ccc(Br)cn2)cc1=O (stereo not drawn) [Example 8.5],18
9,"Cc1cc(CN2CCC[C@@H](O)C2)ccc1C(=O)Cn1ncc(OCc2ccc(Br)cn2)cc1=O [Example 8.6, (R)-5-(5-Bromo-pyridin-2-ylmethoxy)-2-{2-[4-(3-hydroxy-piperidin-1-ylmethyl)-2-methyl-phenyl]-2-oxo-ethyl}-2H-pyridazin-3-one]",21
10,"Cc1cc(CN2CCCC[C@@H]2CO)ccc1C(=O)Cn1ncc(OCc2ccc(Br)cn2)cc1=O [Example 8.7, (R)-5-(5-Bromo-pyridin-2-ylmethoxy)-2-{2-[4-(2-hydroxymethyl-piperidin-1-ylmethyl)-2-methyl-phenyl]-2-oxo-ethyl}-2H-pyridazin-3-one]",20

# Second part, the compound after the results:
row,IC50 [nM],SMILES
1,17,"CCNCc1ccc(C(=O)Cn2ncc(OCc3ccc(Br)cn3)cc2=O)c(C)c1 [Example 8.8, 5-(5-Bromo-pyridin-2-ylmethoxy)-2-[2-(4-ethylaminomethyl-2-methyl-phenyl)-2-oxo-ethyl]-2H-pyridazin-3-one]"
2,18,"Cc1cc(CN2CCC(O)CC2)ccc1C(=O)Cn1ncc(OCc2ccc(Br)cn2)cc1=O [Example 8.9, 5-(5-Bromo-pyridin-2-ylmethoxy)-2-{2-[4-(4-hydroxy-piperidin-1-ylmethyl)-2-methyl-phenyl]-2-oxo-ethyl}-2H-pyridazin-3-one]"
3,25,"CNCc1ccc(C(=O)Cn2ncc(OCc3ccc(Br)cn3)cc2=O)c(C)c1 [Example 8.10, 5-(5-Bromo-pyridin-2-ylmethoxy)-2-[2-(2-methyl-4-methylaminomethyl-phenyl)-2-oxo-ethyl]-2H-pyridazin-3-one]"
4,21,Cc1cc(CN2CCC[C@H]2CO)ccc1C(=O)Cn1ncc(OCc2ccc(Br)cn2)cc1=O [Example 8.11]
5,34,"COc1ccc(COc2cnn(CC(=O)c3ccc(CN4CCC(O)CC4)cc3C)c(=O)c2)nc1 [Example 9.2, 2-{2-[4-(4-Hydroxy-piperidin-1-ylmethyl)-2-methyl-phenyl]-2-oxo-ethyl}-5-(5-methoxy-pyridin-2-ylmethoxy)-2H-pyridazin-3-one]"
